Results reported in patent US6653300B2, “Pyrazole compounds useful as protein kinase inhibitors” (Vertex Pharmaceuticals Incorporated, priority 2000, dated 2003).

Biological target: T1, human Src kinase (Homo sapiens, UniProt P12931)
T1 construct: full length recombinant human Src kinase (from Upstate Biotechnology, cat. no. 14-117); purchased Upstate Biotechnology 14-117; host or cells: baculo viral cells
Test: SRC inhibition assay (radioactivity-based or spectrophotometric assay)
Type: biochemical
Conditions: recombinant human Src kinase; assay A or B; read-out: Ki value on SRC
Method in brief: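 Full-length recombinant human Src from baculovirus was used. In the radiometric format, enzyme was preincubated 10 min at 30 °C, the reaction was started with ^33P-ATP and run 20 min, then TCA-quenched and filter-counted. The alternative format monitored poly Glu-Tyr phosphorylation by NADH-coupled A340 rate. Ki came from competitive-inhibition fits.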

T1 sequence (P12931 whole entry): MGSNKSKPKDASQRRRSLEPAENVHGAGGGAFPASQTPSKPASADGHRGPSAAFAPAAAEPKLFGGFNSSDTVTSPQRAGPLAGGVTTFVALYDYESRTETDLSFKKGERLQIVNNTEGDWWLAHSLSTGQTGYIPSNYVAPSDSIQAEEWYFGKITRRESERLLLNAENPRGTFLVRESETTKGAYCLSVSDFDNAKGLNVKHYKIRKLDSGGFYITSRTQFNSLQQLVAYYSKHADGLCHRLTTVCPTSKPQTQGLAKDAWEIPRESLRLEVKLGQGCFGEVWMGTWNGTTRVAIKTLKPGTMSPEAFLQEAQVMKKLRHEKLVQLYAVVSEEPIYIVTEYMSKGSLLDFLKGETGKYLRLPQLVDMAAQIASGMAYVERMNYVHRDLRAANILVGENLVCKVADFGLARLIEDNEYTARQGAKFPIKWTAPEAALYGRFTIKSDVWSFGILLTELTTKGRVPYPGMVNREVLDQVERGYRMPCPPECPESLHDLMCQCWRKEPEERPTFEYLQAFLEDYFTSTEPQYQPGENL

**Q.** `c1ccc2c(Nc3cc(C4CC4)[nH]n3)nc(Nc3ccc4ncsc4c3)nc2c1` [IIc-32, [2-(Benzothiazol-6-ylamino)-quinazolin-4-yl]-(5-cyclopropyl-2H-pyrazol-3-yl)-amine] was tested. Which Ki did it give?
**A.** < 100 nM
